Experimental findings from the supplement of paper PMC8497498 are described below.

The test system of assay [1] is primary human hepatocytes. The assay can be described thus: CC20 hepatic nuclei (20% reduction); higher = less toxic. The procedure: (§1)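 Dose-response of P. vivax liver stages in primary human hepatocytes, with 8 points (10 uM-[…], v1) or 12 points in duplicate (50 uM-280 pM, v2). Read-out is high-content imaging of schizont net growth area, hypnozoite quantity and hepatic nuclei. EC50 and CC20 (20% nuclei loss) were fitted in CDD Vault from the highest-quality independent experiment; toxic-dose bell-shaped points were masked. '>' marks the highest concentration with less than 50% activity, and ND means a non-sigmoidal curve.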

Assay [2] concerns Plasmodium vivax liver stage (primary human hepatocyte culture). Briefly: maximum inhibition of schizont net growth area; higher = more active. As for the experimental part:
as §1

For assay [3] the test system is unchanged. The procedure: as §1
The mark [4] stands for this setting: P. vivax isolate: Pv590, hepatocyte lot: UBV, assay mode: Radical Cure, 8-day (treatment from day 5 post-infection).
Where [5] appears, read: P. vivax isolate: Pv657, hepatocyte lot: BGW, assay mode: Radical Cure, 8-day (treatment from day 5 post-infection).
Where [6] appears, read: P. vivax isolate: IVS16-38, hepatocyte lot: PDC, assay mode: Prophylactic, 6-day.
[7] abbreviates: P. vivax isolate: Pv668, hepatocyte lot: BGW, assay mode: Radical Cure, 8-day (treatment from day 5 post-infection).
Setting [8] is: P. vivax isolate: Pv458, hepatocyte lot: UBV, assay mode: Radical Cure, 8-day (treatment from day 5 post-infection).
[9] abbreviates: P. vivax isolate: Pv395, hepatocyte lot: UBV, assay mode: Prophylactic, 6-day.
Setting [10] is: P. vivax isolate: Pv728, hepatocyte lot: BGW, assay mode: Radical Cure, 8-day (treatment from day 5 post-infection).

Molecules are shown by their SMILES.

In the case of `COc1ccc(-c2c(C)nn3c(N)c(C#N)cnc23)cc1OC`, the CC20 hepatic nuclei in assay [1] (setting [4]) was more than 50 µM. In addition, the maximum inhibition in assay [2] (setting [4]) was determined as 95.7%. In addition, in assay [3] (setting [4]), the EC50 hypnozoite quantity is more than 50 µM and the “EC50 schizont net growth area” value is 0.599 µM.
In turn, `COc1ccc(-c2nn(C(C)C)c3ncnc(N)c23)cc1OC` registered a CC20 hepatic nuclei in assay [1] (setting [5]) of more than 50 µM. Also, the maximum inhibition in assay [2] (setting [5]) is 71.3%. Also, in assay [3] (setting [5]), the EC50 hypnozoite quantity was more than 50 µM and the “EC50 schizont net growth area” value is 0.294 µM.
In turn, `COc1ccc(-c2cnc3ccc(NCc4ccc(S(N)(=O)=O)cc4)nn23)cn1` came in with a CC20 hepatic nuclei in assay [1] (setting [5]) of more than 50 µM. In addition, the maximum inhibition in assay [2] (setting [5]) came to 79.2%. In addition, the EC50 hypnozoite quantity in assay [3] (setting [5]) was more than 50 µM.
In assay [1] (setting [6]), `COc1ccccc1CNC(=O)CCn1c(=O)[nH]c2ccccc2c1=O` came in with a CC20 hepatic nuclei of more than 10 µM. The maximum inhibition in assay [2] (setting [6]) amounted to 98.3%. Further, in assay [3] (setting [6]), the EC50 hypnozoite quantity is more than 10 µM and the “EC50 schizont net growth area” value came out at 0.68 µM.
In turn, `Cc1sc2ncnc(Sc3nc4ccccc4[nH]3)c2c1C` gave a CC20 hepatic nuclei in assay [1] (setting [4]) of 46.9 µM. Further, the maximum inhibition in assay [2] (setting [4]) was determined as 92.9%. For the same molecule, in assay [3] (setting [4]), the EC50 hypnozoite quantity is more than 50 µM and the “EC50 schizont net growth area” value was found to be 1.62 µM.
`N#CC(C#N)=NNc1cc(Cl)cc(Cl)c1` returned a CC20 hepatic nuclei in assay [1] (setting [7]) of 5.21 µM. The maximum inhibition in assay [2] (setting [7]) came out at 85.1%. For the same molecule, in assay [3] (setting [7]), the EC50 hypnozoite quantity was more than 50 µM and the “EC50 schizont net growth area” value stood at 4.04 µM.
In assay [1] (setting [7]), `O=S1(=O)C=CC2ON=C(c3ccc(Cl)cc3)C21` (stereo not given) showed a CC20 hepatic nuclei of 37.6 µM. Moreover, in assay [2] (setting [7]), the maximum inhibition is 103%. Further, in assay [3] (setting [7]), the EC50 hypnozoite quantity was more than 50 µM and the “EC50 schizont net growth area” value is more than 1.85 µM.
Molecule `O=S1(=O)C=CC2ON=C(c3c(Cl)cccc3Cl)C21` (stereo not given) displayed a CC20 hepatic nuclei in assay [1] (setting [7]) of 45.7 µM. Moreover, in assay [2] (setting [7]), the maximum inhibition was found to be 94.8%. In assay [3] (setting [7]), this molecule came in with an EC50 hypnozoite quantity of more than 50 µM.
Consider `O=c1c(Cl)c(Cl)cnn1-c1nc2ccccc2[nH]1`, for which the CC20 hepatic nuclei in assay [1] (setting [8]) is more than 3.33 µM. The maximum inhibition in assay [2] (setting [8]) amounted to 89.7%. Also, the EC50 hypnozoite quantity in assay [3] (setting [8]) is more than 3.33 µM.
On to `O=C(NCCN1CCCC1)c1cc(NCCCCN2CCC(F)(F)CC2)nc2ccc(Cl)cc12`, for which, in assay [1] (setting [5]), the CC20 hepatic nuclei was more than 50 µM. In addition, the maximum inhibition in assay [2] (setting [5]) is 103%. In assay [3] (setting [5]), the EC50 hypnozoite quantity is more than 50 µM and the “EC50 schizont net growth area” value was determined as 0.00316 µM.
In turn, `O=C(Nc1nc(-c2ccccn2)cs1)C1CC1c1ccccc1F` (stereo not given) gave a CC20 hepatic nuclei in assay [1] (setting [9]) of more than 10 µM. For the same molecule, in assay [2] (setting [9]), the maximum inhibition stood at 94.3%. This molecule also yielded an EC50 hypnozoite quantity in assay [3] (setting [9]) of more than 10 µM.
As to `N#Cc1ccc(-c2cnc(N)c(-c3ccc(C(N)=O)cc3)n2)cc1`, in assay [1] (setting [5]), the CC20 hepatic nuclei was more than 50 µM. The maximum inhibition in assay [2] (setting [5]) amounted to 85.1%. In addition, in assay [3] (setting [5]), the EC50 hypnozoite quantity was more than 50 µM and the “EC50 schizont net growth area” value is 0.0012 µM.
`Nc1ncc(-c2ccc(C(F)(F)F)nc2)cc1-c1ccc(C(F)(F)F)nc1` came in with a CC20 hepatic nuclei in assay [1] (setting [5]) of more than 50 µM. The maximum inhibition in assay [2] (setting [5]) was found to be 87.5%. Besides, in assay [3] (setting [5]), the EC50 hypnozoite quantity was more than 50 µM and the “EC50 schizont net growth area” value was determined as 0.19 µM.
On to `Nc1ncc(-c2cn[nH]c2)cc1-c1nc2cc(Cl)cnc2[nH]1`, for which, in assay [1] (setting [5]), the CC20 hepatic nuclei is more than 50 µM. Further, the maximum inhibition in assay [2] (setting [5]) was found to be 63.7%. Moreover, in assay [3] (setting [5]), the EC50 hypnozoite quantity was more than 50 µM and the “EC50 schizont net growth area” value is more than 50 µM.
Regarding `OCc1ccc(-c2cncc(Nc3cccc(Cl)c3)c2)cc1`, the CC20 hepatic nuclei in assay [1] (setting [4]) is more than 16.7 µM. Moreover, the maximum inhibition in assay [2] (setting [4]) was 94.1%. In assay [3] (setting [4]), the EC50 hypnozoite quantity is more than 50 µM and the “EC50 schizont net growth area” value was 2.54 µM.
In assay [1] (setting [7]), `Oc1c(C(c2ccncc2)N2CCCC2)ccc2cccnc12` (stereo not given) registered a CC20 hepatic nuclei of more than 50 µM. The maximum inhibition in assay [2] (setting [7]) was found to be 80.2%. In assay [3] (setting [7]), this molecule gave an EC50 hypnozoite quantity of more than 50 µM.
Molecule `O=C(Nc1ccc([N+](=O)[O-])cc1)Nc1cc(OCC(F)(F)F)cc(OCC(F)(F)F)c1` yielded a CC20 hepatic nuclei in assay [1] (setting [8]) of more than 3.33 µM. For the same molecule, the maximum inhibition in assay [2] (setting [8]) stood at 75.3%. In assay [3] (setting [8]), the EC50 hypnozoite quantity was more than 10 µM and the “EC50 schizont net growth area” value turned out to be 3.33 µM.
In the same order, the values of `N#CC(c1ccc(Br)cc1)c1ccc2c(C(F)(F)F)cc(C(F)(F)F)nc2n1` (stereo not given) are 5.44 µM, 86%, 0.957 µM and 1.24 µM.
Turning to `CC(C)(ON=C(C(=O)NC1C(=O)N2C(C(=O)[O-])=C(C[n+]3ccccc3)CSC12)c1csc(N)n1)C(=O)O` (stereo not given) [Ceftazidime pentahydrate], in assay [2] (setting [10]), the maximum inhibition was determined as 47.9%. Further, in assay [3] (setting [10]), the EC50 hypnozoite quantity was more than 10 µM and the “EC50 schizont net growth area” value was more than 10 µM.
